Source: the OPERA property sets (Mansouri et al. 2018)
Converted amounts (≈) assume the structure as drawn.

details: 25 °C

| Compound | solubility [µM] |
| --- | --- |
| Cc1ccc(C)c(C)c1 | 474 (≈ 57 µg/mL) |
| CCCCCC | 110 (≈ 9.5 µg/mL) |
| C=CC | 4750 (≈ 200 µg/mL) |
| CCCC | 1050 (≈ 61.2 µg/mL) |
| C=CC(=C)C | 9340 (≈ 636 µg/mL) |
| C=CCC | 3940 (≈ 221 µg/mL) |
| C#CC | 90800 (≈ 3640 µg/mL) |
| C=CC=C | 13600 (≈ 735 µg/mL) |

The next lines start with the values.

| solubility [µM] | Compound |
| --- | --- |
| 70.4 (≈ 7.9 µg/mL) | C1CCCCCCC1 |
| 4670 (≈ 131 µg/mL) | C=C |
| 654 (≈ 55 µg/mL) | C1CCCCC1 |
| 499 (≈ 42 µg/mL) | CC1CCCC1 |
